Measurements from patent US20150184166A1 (Uinversity of Iowa Research Foundation, priority 2012, published 2015).
Where “and” joins values, the source holds several entries; their conditions need not be identical. Equal values may be shown once. Read-outs that look alike come from different tables or passages of the source.

Assays:
[1] = biological target: T1, Caffeine dehydrogenase (Cdh) (Pseudomonas sp., UniProt D7REY3); details: cited from earlier work
T1 sequence (D7REY3 1-791): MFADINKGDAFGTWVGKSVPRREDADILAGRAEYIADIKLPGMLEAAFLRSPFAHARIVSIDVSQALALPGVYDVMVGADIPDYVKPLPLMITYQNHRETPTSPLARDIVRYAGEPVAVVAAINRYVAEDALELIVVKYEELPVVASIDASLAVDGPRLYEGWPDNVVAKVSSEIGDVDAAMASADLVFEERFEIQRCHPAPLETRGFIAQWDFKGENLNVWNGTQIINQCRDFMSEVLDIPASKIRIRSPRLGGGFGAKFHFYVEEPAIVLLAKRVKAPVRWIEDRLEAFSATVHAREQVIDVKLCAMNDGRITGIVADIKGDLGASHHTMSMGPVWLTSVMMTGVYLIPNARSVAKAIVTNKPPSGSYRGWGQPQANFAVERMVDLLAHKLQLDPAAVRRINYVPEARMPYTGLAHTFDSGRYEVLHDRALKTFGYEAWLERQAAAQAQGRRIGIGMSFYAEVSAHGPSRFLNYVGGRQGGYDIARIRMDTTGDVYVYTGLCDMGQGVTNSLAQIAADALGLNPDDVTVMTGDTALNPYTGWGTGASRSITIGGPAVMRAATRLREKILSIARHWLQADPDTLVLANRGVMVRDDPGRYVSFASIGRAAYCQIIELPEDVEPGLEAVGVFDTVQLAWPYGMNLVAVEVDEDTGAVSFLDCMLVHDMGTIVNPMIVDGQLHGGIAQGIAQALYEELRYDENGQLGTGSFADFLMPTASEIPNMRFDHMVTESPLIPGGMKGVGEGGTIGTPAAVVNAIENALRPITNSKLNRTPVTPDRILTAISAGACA
T1 sequence (D7REY4 1-295 partner): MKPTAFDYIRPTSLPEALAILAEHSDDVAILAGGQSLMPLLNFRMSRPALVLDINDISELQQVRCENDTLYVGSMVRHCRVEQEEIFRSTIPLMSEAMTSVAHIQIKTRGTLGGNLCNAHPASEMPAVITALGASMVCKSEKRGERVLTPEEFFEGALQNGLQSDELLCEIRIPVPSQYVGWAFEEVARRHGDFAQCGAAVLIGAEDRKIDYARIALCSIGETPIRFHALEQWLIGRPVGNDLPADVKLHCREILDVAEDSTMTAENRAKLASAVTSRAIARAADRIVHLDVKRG
T1 sequence (D7REY5 1-167 partner): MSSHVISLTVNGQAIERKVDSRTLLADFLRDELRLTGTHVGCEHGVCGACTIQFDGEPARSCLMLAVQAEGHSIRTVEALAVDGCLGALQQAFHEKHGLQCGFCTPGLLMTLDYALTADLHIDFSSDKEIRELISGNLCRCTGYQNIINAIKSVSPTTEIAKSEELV

[2] = tested on: Ndm (methylxanthine N-demethylase) with Ccr reductase
[3] = biological target: Ndm (methylxanthine N-demethylase) with Ccr reductase (Pseudomonas putida, UniProt H9N289+H9N290); details: for O-demethylation by Ndm: prolonged incubation
NdmB-His6 = NdmB-His6 (Pseudomonas putida, UniProt H9N290); test: Kinetic parameters of NdmB-His6 with His6-NdmD; format: biochemical, Pseudomonas putida CBB5; details: for kcat / Km: NdmB-His6 plus His6-NdmD, pH 7.5, 30° C.
Description: (§1) Methylxanthine N-demethylase activity assay contained, in 1-ml total volume, 0.5 mM methylxanthine, 1 mM NADH, 50 μM Fe(NH4)2(SO4)2, and an appropriate amount of NdmA-His6 or NdmB-His6 (7.4 μg-2.5 mg protein depending on substrate specificity) in 50 mM KPi buffer (pH 7.5). Approximately 4 U of partially purified reductase, prepared as described previously (Summers et al., 2011) or 59 U of purified His6-NdmD was added to reaction mixture. Catalase from bovine liver (4,000 U) was also added to reactions containing His6-NdmD. The reaction mixture was incubated at 30° C. with 300 rpm shaking on an incubating microplate shaker (VWR, Radnor, Pa.). Periodically, a small aliquot was sampled from the reaction mixture and mixed with equal volume of acetonitrile for quantifying concentrations of methylxanthines and N-demethylated products by HPLC. One unit of N-demethylase activity was defined as the consumption of one […] methylxanthine per minute.
(§2) Apparent kinetic parameters of NdmA-His6 and NdmB-His6 were determined by measuring the initial rate of disappearance (vo) of methylxanthines in 50 mM KPi buffer (pH 7.5) at 30° C. The initial substrate concentrations ([S]) used in these experiments were from 25 to 500 μM. Substrates were incubated with His6-NdmD plus either NdmA-His6 or NdmB-His6 under standard conditions for 15 minutes. At 1, 5, 10, and 15 minutes, samples were removed from the reaction mixtures to quantitate substrate concentrations by HPLC. Plots of substrate concentrations against time were used to determine the initial rates of disappearance of substrates which were linear over 15 minutes. The apparent kinetic parameters were determined from Michaelis-Menten plots of vo against [S] fitted with the equation

[4] = tested on: cell extracts of P. putida CBB5; test: NADH-dependent N-demethylase activity of CBB5 cell extracts; format: biochemical, Pseudomonas putida CBB5; details: 0.5 mM substrate, 7.2 mg mL^−1 protein
NdmC = test: N-demethylation by NdmC fraction co-purified with reductase; format: biochemical, Pseudomonas putida CBB5
Description: This activity was neither associated with NdmA nor with NdmB. […] Cloning of NdmC has proven difficult; nevertheless based on the fact that purified His6-NdmD had no activity on 7-methylxanthine, we annotate orf 8 as aanother RO with highly specific N-7 demthylase activity.

NdmA-His6 = biological target: T2, NdmA-His6 (Pseudomonas putida, UniProt H9N289); test: Kinetic parameters of NdmA-His6 with His6-NdmD; format: biochemical, Pseudomonas putida CBB5; details: for Km / kcat: NdmA-His6 plus His6-NdmD, pH 7.5, 30° C.
T2 sequence (H9N289 1-351): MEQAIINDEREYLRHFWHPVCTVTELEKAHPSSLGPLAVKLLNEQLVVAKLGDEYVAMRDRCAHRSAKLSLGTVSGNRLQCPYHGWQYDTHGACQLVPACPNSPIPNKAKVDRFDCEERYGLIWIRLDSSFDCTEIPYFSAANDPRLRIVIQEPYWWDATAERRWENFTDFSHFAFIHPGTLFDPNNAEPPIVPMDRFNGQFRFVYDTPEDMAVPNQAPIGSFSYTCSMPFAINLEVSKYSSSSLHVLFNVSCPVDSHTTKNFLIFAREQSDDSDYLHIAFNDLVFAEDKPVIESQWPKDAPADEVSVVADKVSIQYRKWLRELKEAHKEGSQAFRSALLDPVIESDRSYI
Description: as §1, §2

[5] = biological target: T3, Ndm, two-subunit N-demethylase component purified from Pseudomonas putida CBB5, H9N289
T3 chain 1: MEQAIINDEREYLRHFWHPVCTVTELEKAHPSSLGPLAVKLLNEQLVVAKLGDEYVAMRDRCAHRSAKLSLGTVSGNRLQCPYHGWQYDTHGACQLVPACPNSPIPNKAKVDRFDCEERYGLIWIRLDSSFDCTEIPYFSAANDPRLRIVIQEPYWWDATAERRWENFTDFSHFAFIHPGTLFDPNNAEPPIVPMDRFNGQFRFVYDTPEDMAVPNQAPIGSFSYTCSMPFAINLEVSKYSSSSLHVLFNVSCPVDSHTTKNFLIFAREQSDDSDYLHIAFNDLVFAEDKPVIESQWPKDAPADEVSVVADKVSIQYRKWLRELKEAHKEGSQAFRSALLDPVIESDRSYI
T3 chain 2: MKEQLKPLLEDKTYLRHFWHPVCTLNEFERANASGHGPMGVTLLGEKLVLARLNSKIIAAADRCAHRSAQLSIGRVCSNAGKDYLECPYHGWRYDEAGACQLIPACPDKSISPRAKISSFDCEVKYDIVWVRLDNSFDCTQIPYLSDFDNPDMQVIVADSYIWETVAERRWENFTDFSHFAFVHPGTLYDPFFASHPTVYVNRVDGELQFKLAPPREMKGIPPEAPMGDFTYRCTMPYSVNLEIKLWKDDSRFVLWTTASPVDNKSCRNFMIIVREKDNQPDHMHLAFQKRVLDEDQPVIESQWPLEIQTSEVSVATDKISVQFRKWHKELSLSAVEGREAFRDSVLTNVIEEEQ

**Q.** For `O=c1[nH]c(=O)c2[nH]cnc2[nH]1` [xanthine], which “activity of Cdh” value [1] is on record?
**A.** no activity

**Q.** What about the “activity of Cdh in substrate specificity study” value [1] of the same molecule?
**A.** none

**Q.** What about the “product formed from paraxanthine” value ([2]; 90 minutes, 7.4 mU (7.4 units) of Ndm) of the same molecule?
**A.** 193.7 ± 4.0 µM and 193.7 ± 14.0 µM

**Q.** And the N-demethylation product present ([2]; from paraxanthine, after 13 minutes)?
**A.** ~20.3 µM

**Q.** Which “O-demethylation by Ndm” value [3] does the source give for `COc1cc(C=O)ccc1O` [vanillin] here?
**A.** did not catalyze O-demethylation

**Q.** What does the source list for `Cn1c(=O)c2[nH]cnc2n(C)c1=O` [Theophylline, 1,3-dimethylxanthine]?
**A.** activity of Cdh [1]: no activity; activity of Cdh in substrate specificity study [1]: 5%; kcat (NdmB-His6): 0.27 min⁻¹; Km (NdmB-His6; read-out: Km): 169 µM; degradation rate compared with paraxanthine [4]: significantly slower

**Q.** For `Cn1cnc2c1c(=O)[nH]c(=O)n2C` [Theobromine, 3,7-dimethylxanthine], which “Preference as a substrate, times less than caffeine” value [1] is on record?
**A.** 50 times

**Q.** And the “N-demethylation by NdmC/reductase fraction” value (NdmC)?
**A.** not N-demethylated

**Q.** And the kcat (NdmB-His6)?
**A.** 46.3 min⁻¹

**Q.** And the Km (NdmB-His6; read-out: Km)?
**A.** 25.3 µM

**Q.** And the “N-demethylation activity of NdmA” value (NdmA-His6)?
**A.** inactive

**Q.** What about the Km (NdmA-His6) of the same molecule?
**A.** ∞

**Q.** And the “degradation rate compared with paraxanthine” value [4]?
**A.** significantly slower

**Q.** For `Cn1c(=O)[nH]c2nc[nH]c2c1=O` [1-methylxanthine], which “N-demethylation activity of NdmB” value (NdmB-His6) is on record?
**A.** no activity

**Q.** What about the Km (NdmB-His6) of the same molecule?
**A.** ∞

**Q.** What about the kcat (NdmA-His6) of the same molecule?
**A.** 15.6 min⁻¹

**Q.** What about the Km (NdmA-His6; read-out: Km) of the same molecule?
**A.** 267 µM

**Q.** Which results are given for `Cn1c(=O)c2c(ncn2C)n(C)c1=O` [Caffeine, 1,3,7-trimethylxanthine]?
**A.** Km ([1]; Yu et al., 2008): 3.7 ± 0.9 µM; N-demethylation by NdmC/reductase fraction (NdmC): not N-demethylated; kcat (NdmB-His6): 0.23 min⁻¹; Km (NdmB-His6; read-out: Km): 41.7 µM; kcat (NdmA-His6): 192.3 min⁻¹; Km (NdmA-His6; read-out: Km): 37.6 µM; degradation rate compared with paraxanthine [4]: significantly slower

**Q.** What does the source list for `Cn1c(=O)[nH]c2ncn(C)c2c1=O` [Paraxanthine, 1,7-dimethylxanthine]?
**A.** N-demethylation by NdmC/reductase fraction (NdmC): not N-demethylated; N-demethylation activity of NdmB (NdmB-His6): no activity; Km (NdmB-His6): ∞; kcat (NdmA-His6): 132.9 min⁻¹; Km (NdmA-His6; read-out: Km): 52.9 µM; Km ([2]; read-out: apparent KM, saturating Ccr, 50 μM Fe2+, 30° C., 50 mM KPi pH 7.5): 50.4 ± 6.8 µM; apparent kcat ([2]; saturating Ccr, 50 μM Fe2+, 30° C., 50 mM KPi pH 7.5): 16.2 ± 0.6 min⁻¹; paraxanthine N-demethylated ([3]; after 13 minutes, 100 μM paraxanthine, 0.2 mg Ndm, 4 U Ccr): 60.2 µM; time to complete utilization ([4]; 0.5 mM NADH): about 20 minutes

**Q.** For `Cn1c(=O)[nH]c(=O)c2[nH]cnc21` [3-Methylxanthine, 3-methylxanthine], which kcat (NdmB-His6) is on record?
**A.** 31.7 min⁻¹

**Q.** And the Km (NdmB-His6; read-out: Km)?
**A.** 22.4 µM

**Q.** And the “N-demethylation activity of NdmA” value (NdmA-His6)?
**A.** inactive

**Q.** What about the Km (NdmA-His6) of the same molecule?
**A.** ∞

**Q.** For `COc1cc(C(=O)O)ccc1O` [vanillate], which “O-demethylation by Ndm” value [3] is on record?
**A.** did not catalyze O-demethylation

B1: Spinach ferredoxin reductase (protein)
chain: QIASDVEAPPPAPAKVEKHSKKMEEGITVNKFKPKTPYVGRCLLNTKITGDDAPGETWHMVFSHEGEIPYREGQSVGVIPDGEDKNGKPHKLRLYSIASSALGDFGDAKSVSLCVKRLIYTNDAGETIKGVCSNFLCDLKPGAEVKLTGPVGKEMLMPKDPNATIIMLGTGTGIAPFRSFLWKMFFEKHDDYKFNGLAWLFLGVPTSSSLLYKEEFEKMKEKAPDNFRLDFAVSREQTNEKGEKMYIQTRMAQYAVELWEMLKKDNTYFYMCGLKGMEKGIDDIMVSLAAAEGIDWIEYKRQLKKAEQWNVEVY
**Q.** Which N-demethylase activity [5] does the source give for B1 here?
**A.** Ndm did not couple with ferredoxin reductase plus ferredoxin from spinach

B2: Reductase component of Pseudomonas sp. 9816 naphthalene dioxygenase (protein)
chain: MELLIQPNNRIIPFSAGANLLEVLRENGVAISYSCLSGRCGTCRCRVIDGSVIDSGAENGQSNLTDKQYVLACQSVLTGNCAIEVPEADEIVTHPARIIKGTVVAVESPTHDIRRLRVRLSKPFEFSPGQYATLQFSPEHARPYSMAGLPDDQEMEFHIRKVPGGRVTEYVFEHVREGTSIKLSGPLGTAYLRQKHTGPMLCVGGGTGLAPVLSIVRGALKSGMTNPILLYFGVRSQQDLYDAERLHKLAADHPQLTVHTVIATGPINEGQRAGLITDVIEKDILSLAGWRAYLCGAPAMVEALCTVTKHLGISPEHIYADAFYPGGI
**Q.** For B2, which N-demethylase activity [5] is on record?
**A.** Ndm did not function in the presence of the reductase and ferredoxin components of Pseudomonas sp. 9816 naphthalene dioxygenase
